Where two headings read alike, the source gives them in different places.
What was measured:
[1] = tested on: newly transformed schistosomula (NTS); assay: NTS viability phenotypic screening, 72 h; conditions: for IC50: Schistosoma mansoni, read-out: IC50 (NTS viability)
[2] = MTT cytotoxicity in RPE cells; type: cell-based; conditions: human, retinal pigment epithelial (RPE) cells; for viability at 72 h, 5 µM / viability at 72 h, 10 µM / viability at 72 h, 25 µM / viability at 72 h, 50 µM: read-out: percentage of viability, 72 h; for IC50 at 72 h: read-out: IC50 (cell viability)
Description: (§1) The MTT method was used to evaluate cell viability after 72 h of treatment.
(§2) Human commercial lung diploid fibroblasts (MRC-5), and diploid retinal epithelium cells (RPE) were obtained from the American Type Culture Collection (ATCC) and kindly provided by Dr Francesca Degrassi (CNR IBPM) and maintained in minimal essential medium or DMEM-F12 medium supplemented with fetal calf serum, antibiotics, and nonessential amino acids. Cells were grown at 37 °C, in a humidified atmosphere, with 5% CO2. For experiments, cells were seeded in 200 μL of complete in each well of a 96-well microtiter plate. After 24 h, compounds were added at 5, 10, 25, and 50 μM for 72 h in sextuplicate. MTT was added (0.5 mg/mL), incubated for 4 h at 37 °C, and dissolved in 200 μL of isopropyl alcohol. Absorbance was measured at 570 nm (ELISA reader, DASIT), and cell viability was calculated as viability=(ODoftreatedcells/ODofcontrolcells)×100

[3] = molecular target: T1, human LSD1-CoREST complex (Homo sapiens, UniProt O60341); assay: ThermoFAD thermal stability assay; type: binding; conditions: LSD1-CoREST thermal stability
T1 construct: made in house
Description: Compounds 14–22 were tested against the human LSD1-CoREST complex to determine their inhibitory activity. […] ThermoFAD assays were then performed to assess the impact of 14–22 on the thermal stability (ΔT m values, Table ) of the LSD1-CoREST complex. The most significant shifts in Tm values corresponded to the strongest binders. […] Compound 22 was not tested, considering its previous negative results.
Protein expression, thermal stability, and inhibition of human LSD1-CoREST were performed using established protocols. […] LSD1-CoREST (0.4 μM) was preincubated with the inhibitor at 25 °C for 10 min in the presence of 5% DMSO. The reaction was initiated by adding an equal volume of the substrate solution to the enzyme–inhibitor mixture, and resorufin fluorescence (excitation at 530–570 nm and emission at 580–590 nm) was detected with a Clariostar plate reader.

[4] = tested on: adult worms; assay: Adult worm viability phenotypic assay, 72 h; conditions: Schistosoma mansoni, read-out: IC50 (adult worm viability)
Description: The life cycle is maintained at the Swiss TPH as described previously. Cercariae were obtained from infected snails by exposing them to a strong light source for 3–4 h in pond water.
For NTS and adult worms, transparent flat-bottom 96- and 24-well plates were used, respectively (Sarstedt, Switzerland). For juvenile worms, 48-well plates were used with 3–6 worms per plate and RPMI medium with 5% FCS and 1% penicillin/streptomycin. Compounds were initially tested at 20 and 10 μM in triplicate on NTS and repeated once; each well contained 30–40 NTS. Phenotypic reference points such as motility, morphology, and granularity were used to score incubated parasites’ overall viability (scores from 0 to 3). […] Identified hits from the NTS screening were tested on adult worms. […] The experiment was conducted in duplicate and repeated; standard deviations were calculated from two wells. […] For all in vitro assays, negative controls (DMSO at the highest tested concentration) were included.

[5] = tested on: S. mansoni juvenile forms; assay: Speed-of-action assay in juvenile forms; type: cell-based, Schistosoma mansoni; conditions: for IC50: Schistosoma mansoni, read-out: IC50 (speed of action, juvenile forms); for Percentage of effect: juvenile forms
Text: (§3) To better characterize a selection of our LSD1i in vitro, we assessed the onset of their action, defined as the time required for an observable antischistosomal effect. […] For detailed percentages of activity at each time point, refer to the Supporting Information (Tables S2 and S3 in Supporting Information).

[6] = MTT cytotoxicity in MRC-5 cells; type: cell-based; conditions: human, MRC-5 lung diploid fibroblast cells; for viability at 72 h, 5 µM / viability at 72 h, 10 µM / viability at 72 h, 25 µM / viability at 72 h, 50 µM: read-out: percentage of viability, 72 h; for IC50 at 72 h: read-out: IC50 (cell viability)
Description: as §1, §2

[7] = tested on: adult worms; assay: Pairing and egg laying of adult worms; type: cell-based, Schistosoma mansoni; conditions: for eggs' number: 20 μM; for effect on worm pairing: adult worms
Description: Selected compounds 2, 15, 18, and 19 were tested on adult worms to evaluate their effects on pairing and egg laying.

[8] = tested on: NTS; assay: Speed-of-action assay in NTS; type: cell-based, Schistosoma mansoni; conditions: for Percentage of effect: NTS; for IC50: Schistosoma mansoni, read-out: IC50 (speed of action, NTS)
Text: as §3

[9] = molecular target: T1, human LSD1-CoREST complex; assay: HRP-coupled LSD1 inhibition assay; type: biochemical; conditions: 10 min preincubation, read-out: IC50 (hLSD1 direct inhibition)
Description: Protein expression, thermal stability, and inhibition of human LSD1-CoREST were performed using established protocols. […] The reaction was initiated by adding an equal volume of the substrate solution to the enzyme–inhibitor mixture, and resorufin fluorescence (excitation at 530–570 nm and emission at 580–590 nm) was detected with a Clariostar plate reader.

Cl.NC1CC1c1ccc(NC(=O)c2ccc(C#CC3CC3)cc2)cc1 (stereo not drawn) [Compound 19, N-(4-(2-Aminocyclopropyl)phenyl)-4-(cyclopropylethynyl)benzamide Hydrochloride]
Percentage of reduction of NTS viability, 72 h ([1]; 1 μM): 22.6 ± 1.9%
Percentage of reduction of NTS viability, 72 h ([1]; 10 μM): 100 ± 0.0%
Percentage of reduction of NTS viability, 72 h ([1]; 20 μM): 100 ± 0.0%
IC50 [1]: 1.27 µM
viability at 72 h, 5 µM [2]: 92 ± 26%
viability at 72 h, 10 µM [2]: 89 ± 35%
viability at 72 h, 25 µM [2]: 98 ± 21%
viability at 72 h, 50 µM [2]: 103 ± 20%
IC50 at 72 h [2]: > 100 µM
ΔTm [3]: +8 °C
IC50 [4]: > 10 µM
IC50 ([5]; 4 h): > 20 µM
IC50 ([5]; 24 h): > 20 µM
IC50 ([5]; 48 h): > 20 µM
IC50 ([5]; 72 h): 2.7 µM
Percentage of effect ([5]; 4 h, 1 μM): 20%
Percentage of effect ([5]; 4 h, 10 μM): 20%
Percentage of effect ([5]; 4 h, 20 μM): 41.82%
Percentage of effect ([5]; 24 h, 1 μM): 27.59%
Percentage of effect ([5]; 24 h, 10 μM): 34.48%
Percentage of effect ([5]; 24 h, 20 μM): 40.38%
Percentage of effect ([5]; 48 h, 1 μM): 36.54%
Percentage of effect ([5]; 48 h, 10 μM): 46.15%
Percentage of effect ([5]; 48 h, 20 μM): 47.92%
Percentage of effect ([5]; 72 h, 1 μM): 43.03%
Percentage of effect ([5]; 72 h, 10 μM): 46.73%
Percentage of effect ([5]; 72 h, 20 μM): 81.25%
viability at 72 h, 5 µM [6]: 98 ± 20%
viability at 72 h, 10 µM [6]: 88 ± 18%
viability at 72 h, 25 µM [6]: 85 ± 8%
viability at 72 h, 50 µM [6]: 85 ± 35%
IC50 at 72 h [6]: > 100 µM
eggs' number ([7]; 4 h): 0
eggs' number ([7]; 8 h): 0
eggs' number ([7]; 24 h): 0
eggs' number ([7]; 48 h): 0
eggs' number ([7]; 72 h): 5
effect on worm pairing [7]: no impact on worm pairing
Percentage of effect ([8]; 4 h, 10 μM): 30.77%
Percentage of effect ([8]; 4 h, 20 μM): 38.46%
Percentage of effect ([8]; 24 h, 10 μM): 48.21%
Percentage of effect ([8]; 24 h, 20 μM): 78.57%
Percentage of effect ([8]; 48 h, 10 μM): 87.76%
Percentage of effect ([8]; 48 h, 20 μM): 100%
Percentage of effect ([8]; 72 h, 10 μM): 93.88%
Percentage of effect ([8]; 72 h, 20 μM): 100%
IC50 ([8]; 4 h): > 20 µM
IC50 ([8]; 24 h): 10.4 µM
IC50 ([8]; 48 h): 8.3 µM
IC50 ([8]; 72 h): 7.5 µM
IC50 [9]: 0.02 ± 0.001 µM

CCCc1ccc(C(=O)Nc2ccc(C3CC3N)cc2)cc1.Cl (stereo not drawn) [Compound 15, N-(4-(2-Aminocyclopropyl)phenyl)-4-propylbenzamide Hydrochloride]
Percentage of reduction of NTS viability, 72 h ([1]; 1 μM): 30.2 ± 1.9%
Percentage of reduction of NTS viability, 72 h ([1]; 10 μM): 87.5 ± 4.2%
Percentage of reduction of NTS viability, 72 h ([1]; 20 μM): 100 ± 0.0%
IC50 [1]: 1.72 µM
viability at 72 h, 5 µM [2]: 89 ± 3%
viability at 72 h, 10 µM [2]: 104 ± 12%
viability at 72 h, 25 µM [2]: 99 ± 6%
viability at 72 h, 50 µM [2]: 106 ± 17%
IC50 at 72 h [2]: > 100 µM
ΔTm [3]: +9.5 °C
IC50 [4]: > 10 µM
IC50 ([5]; 4 h): > 20 µM
IC50 ([5]; 24 h): > 20 µM
IC50 ([5]; 48 h): > 20 µM
IC50 ([5]; 72 h): 4.3 µM
Percentage of effect ([5]; 4 h, 1 μM): 23.33%
Percentage of effect ([5]; 4 h, 10 μM): 33.33%
Percentage of effect ([5]; 4 h, 20 μM): 45.45%
Percentage of effect ([5]; 24 h, 1 μM): 24.14%
Percentage of effect ([5]; 24 h, 10 μM): 34.48%
Percentage of effect ([5]; 24 h, 20 μM): 48.08%
Percentage of effect ([5]; 48 h, 1 μM): 34.62%
Percentage of effect ([5]; 48 h, 10 μM): 42.31%
Percentage of effect ([5]; 48 h, 20 μM): 50%
Percentage of effect ([5]; 72 h, 1 μM): 40.96%
Percentage of effect ([5]; 72 h, 10 μM): 44.55%
Percentage of effect ([5]; 72 h, 20 μM): 70.83%
viability at 72 h, 5 µM [6]: 81 ± 16%
viability at 72 h, 10 µM [6]: 91 ± 20%
viability at 72 h, 25 µM [6]: 89 ± 17%
viability at 72 h, 50 µM [6]: 92 ± 20%
IC50 at 72 h [6]: > 100 µM
eggs' number ([7]; 4 h): 0
eggs' number ([7]; 8 h): 0
eggs' number ([7]; 24 h): 0
eggs' number ([7]; 48 h): 0
eggs' number ([7]; 72 h): 8
effect on worm pairing [7]: no impact on worm pairing
Percentage of effect ([8]; 4 h, 10 μM): 21.15%
Percentage of effect ([8]; 4 h, 20 μM): 38.46%
Percentage of effect ([8]; 24 h, 10 μM): 50%
Percentage of effect ([8]; 24 h, 20 μM): 57.14%
Percentage of effect ([8]; 48 h, 10 μM): 51.02%
Percentage of effect ([8]; 48 h, 20 μM): 91.84%
Percentage of effect ([8]; 72 h, 10 μM): 71.43%
Percentage of effect ([8]; 72 h, 20 μM): 100%
IC50 ([8]; 4 h): > 20 µM
IC50 ([8]; 24 h): 10 µM
IC50 ([8]; 48 h): 9.9 µM
IC50 ([8]; 72 h): 9.3 µM
IC50 [9]: 0.12 ± 0.02 µM

Source: PMC12340956, “Tranylcypromine-Based LSD1 Inhibitors as Useful Agents to Reduce Viability of” (ACS Infectious Diseases, 2025)
